# Read-outs that look alike come from different tables or passages of the source. Where no end group is shown, it is not given here.
# Columns and labels:
# [1] = tested on: subcutaneous BxPC-3 tumors; conditions: mouse, in vivo
# BxPC-3 cells = assay: Binding of peptide-IRDye conjugates to cultured BxPC-3 cells; format: cell-based, human; conditions: BxPC-3 (αvβ6+ αvβ8-), 1 h at 37° C.
# Procedure: (§1) B) Binding of the indicated peptide-IRDye conjugates to the various cell lines. Various amounts of conjugates were added to cell monolayers (grown in 96-well microtiter plates) and incubated for 1 h at 37° C., 5% CO2 (see Experimental section). After washing, bound fluorescence was measured using an Odyssey CLx (LI-COR) scanner. A representative image of the scanned plate and binding quantification are reported. Mean ±SE of quadruplicate wells.
# (§2) Various amounts of unlabeled peptides were mixed 5a-IRDye (4 nM) and added to the cells. After 1 h, the plates were washed, and the bound fluorescence was quantified as described above (left panels).
# (§3) The binding of peptide-IRDye conjugates to BxPC-3, 5637, HUVECs, 4T1, K8484 and DT6606 cells was analyzed as follows. The cells were grown in 96-well clear-bottom black microtiterplates (Corning® cat. 3603, 2-3x10^4 cells/well, plated 48 h before the experiment). After washing twice with 0.9% sodium chloride solution, the cells were incubated with 25 mM Hepes buffer, pH 7.4, containing 150 mM sodium chloride, 1 mM magnesium chloride, 1 mM manganese chloride and 1% BSA (binding buffer) for 5 min. Peptide-IRDye conjugates (0.013-40 nM in binding buffer) were then added to the cells and left to incubate for 1 h at 37° C., 5% CO2. After three washings with binding buffer (5 min each, 200 al/well), the cells were fixed with PBS containing 2% paraformaldehyde and 3% sucrose for 15 min at room temperature. Binding of conjugates to cells was quantified by scanning the plate (filled with PBS, 100 al/well) with the Odyssey CLx (LI-COR) using the following settings: scan intensity, 8.5; scan focus offset 4; scan quality, highest; channel, 800; resolution, 169 pm. Then, the plates were incubated with 5 μg/ml of 4′,6-diamidino-2-phenylindole (DAPI) for 15 min, washed twice with PBS and read with a VICTOR3 plate reader (Perkin Elmer, Waltham, Mass., USA) to quantify the cell number in each well, using the following filters: excitation, 355±40 nm; emission, 460±25 nm (acquisition,1 s).
# 5637 cells [2] = assay: Binding of peptide-IRDye conjugates to cultured 5637 cells; format: cell-based, human; conditions: 5637 (αvβ6+ αvβ8+), 1 h at 37° C.
# Procedure: as §1, §2, §3
# in vivo = conditions: female, NSG, mouse, iv, 1.28 nmol
# HUVEC = assay: Binding of peptide-IRDye conjugates to cultured HUVEC; format: cell-based, human; conditions: HUVEC (lacking these integrins)
# Procedure: as §1
# The binding of peptide-IRDye conjugates to BxPC-3, 5637, HUVECs, 4T1, K8484 and DT6606 cells was analyzed as follows. The cells were grown in 96-well clear-bottom black microtiterplates (Corning® cat. 3603, 2-3x10^4 cells/well, plated 48 h before the experiment). […] Binding of conjugates to cells was quantified by scanning the plate (filled with PBS, 100 al/well) with the Odyssey CLx (LI-COR) using the following settings: scan intensity, 8.5; scan focus offset 4; scan quality, highest; channel, 800; resolution, 169 pm. Then, the plates were incubated with 5 μg/ml of 4′,6-diamidino-2-phenylindole (DAPI) for 15 min, washed twice with PBS and read with a VICTOR3 plate reader (Perkin Elmer, Waltham, Mass., USA) to quantify the cell number in each well, using the following filters: excitation, 355±40 nm; emission, 460±25 nm (acquisition,1 s).
# 5637 cells [3] = assay: Binding assay of 5-Qdot to human 5637 cells (FACS, fluorescence microscopy); format: cell-based; conditions: flow cytometry and fluorescence microscopy
# Procedure: FIG. 3. Binding of CgA-derived peptides to human bladder cancer 5637 cells. a) Effect of 1, 4, 5 and 6 on the binding of anti-αvβ6 mAb 10D5 to 5637 cells. Antibody binding quantification as determined by flow cytometry analysis (FACS) (see also FIG. 11A). Compounds were mixed with mAb 10D5 and added to cells; mAb binding was detected by FACS and inhibitory concentration (IC50, mean±SEM) was determined. Each point is in duplicate. b) Binding of 5-Qdot or *Qdot (control) to 5637 cells as measured by FACS. Representative FACS (left and middle) and quantification of Qdot binding (right) (circles: mean±SD of duplicates). c) Representative fluorescence bioimaging of 5637 cells incubated with 5-Qdot, *Qdot or diluent. […]
# Binding assays of 5-Qdot and *Qdot to 5637 cells were carried out as follows: 5637 cells were grown in chamber slides (6×10^4 cells/well). […] The cells were washed again with binding buffer, fixed with paraformaldehyde for 20 min, counterstained with DAPI (0.05 μg/ml, Invitrogen), and analyzed using a fluorescence microscopy (Carl Zeiss, Axioscop 40FL; excitation, filter, BP 560/40 nm; beam splitter filter, FT 585 nm; emission filter, 630/75 nm). […] After washing with 25 mM Hepes buffer, pH 7.4, containing 150 mM NaCl, 1 mM MgCl2, 1 mM MgCl2, the cells were fixed with formaldehyde and analyzed using the CytoFLEX S (Beckman Coulter).
# αvβ8 [4] = biological target: T1, αvβ8 (Homo sapiens, UniProt P06756+P26012); assay: Competitive integrin binding assay (isoDGR/STV-HRP probe), αvβ8-coated plates; conditions: non-stapled control peptide with RGE
# T1 sequence (P06756 31-992 limits assumed): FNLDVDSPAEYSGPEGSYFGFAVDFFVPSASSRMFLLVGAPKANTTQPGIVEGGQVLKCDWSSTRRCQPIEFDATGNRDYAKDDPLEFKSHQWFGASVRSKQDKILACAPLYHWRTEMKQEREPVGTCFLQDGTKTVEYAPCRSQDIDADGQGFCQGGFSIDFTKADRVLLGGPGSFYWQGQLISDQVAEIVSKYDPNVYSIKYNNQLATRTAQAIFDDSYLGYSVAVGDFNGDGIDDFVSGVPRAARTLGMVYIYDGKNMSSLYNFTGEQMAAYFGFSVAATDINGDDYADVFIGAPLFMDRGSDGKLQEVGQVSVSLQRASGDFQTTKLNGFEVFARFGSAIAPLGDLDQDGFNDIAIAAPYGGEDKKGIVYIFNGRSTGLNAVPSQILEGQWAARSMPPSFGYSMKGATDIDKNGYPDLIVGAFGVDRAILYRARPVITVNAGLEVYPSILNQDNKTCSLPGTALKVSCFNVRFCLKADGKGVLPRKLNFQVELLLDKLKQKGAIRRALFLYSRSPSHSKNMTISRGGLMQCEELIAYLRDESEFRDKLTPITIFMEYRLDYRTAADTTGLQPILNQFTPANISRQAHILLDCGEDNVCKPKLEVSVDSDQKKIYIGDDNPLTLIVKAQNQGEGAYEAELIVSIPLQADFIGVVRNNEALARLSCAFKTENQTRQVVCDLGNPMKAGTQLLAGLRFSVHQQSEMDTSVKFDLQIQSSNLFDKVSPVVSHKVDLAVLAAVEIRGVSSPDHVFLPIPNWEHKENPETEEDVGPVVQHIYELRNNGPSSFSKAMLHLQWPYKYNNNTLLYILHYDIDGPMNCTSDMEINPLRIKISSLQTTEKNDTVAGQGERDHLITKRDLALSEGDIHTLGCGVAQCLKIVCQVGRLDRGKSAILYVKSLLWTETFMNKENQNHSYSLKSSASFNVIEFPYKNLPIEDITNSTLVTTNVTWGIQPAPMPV
# T1 sequence (P26012 43-684 limits assumed): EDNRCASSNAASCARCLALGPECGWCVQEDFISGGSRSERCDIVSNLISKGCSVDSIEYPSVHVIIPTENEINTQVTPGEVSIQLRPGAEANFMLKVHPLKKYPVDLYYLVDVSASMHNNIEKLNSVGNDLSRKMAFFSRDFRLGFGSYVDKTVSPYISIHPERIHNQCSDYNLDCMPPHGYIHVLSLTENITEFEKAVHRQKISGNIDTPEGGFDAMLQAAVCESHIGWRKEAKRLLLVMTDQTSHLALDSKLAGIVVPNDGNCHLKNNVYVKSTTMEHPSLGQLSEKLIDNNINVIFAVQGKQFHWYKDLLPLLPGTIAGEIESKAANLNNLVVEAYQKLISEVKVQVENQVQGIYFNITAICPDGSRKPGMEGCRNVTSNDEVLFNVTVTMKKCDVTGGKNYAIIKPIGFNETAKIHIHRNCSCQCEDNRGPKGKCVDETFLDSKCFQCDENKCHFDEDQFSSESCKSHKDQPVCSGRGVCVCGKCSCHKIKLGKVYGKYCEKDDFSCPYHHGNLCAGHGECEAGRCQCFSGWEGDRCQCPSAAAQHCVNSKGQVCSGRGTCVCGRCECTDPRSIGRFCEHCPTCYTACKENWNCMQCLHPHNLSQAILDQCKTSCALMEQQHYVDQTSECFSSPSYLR
# Procedure: (§4) Peptide binding was measured by a competitive binding assay using as integrin probe a complex made by a N-terminal acetylated isoDGR peptide biotinylated at the E-amino group of the lysine, acetyl-Ciso[…]-bio (SEQ ID No. 29), and a streptavidin-peroxidase conjugate (called isoDGR/STV-HRP)[43].
# (§5) Each mixture was then added to integrin-coated wells and left to incubate for 2 h at room temperature. After washing with 25 mM Tris-HCl, pH 7.4, containing 150 mM sodium chloride, 1 mM magnesium chloride, 1 mM manganese chloride, each well was filled with a chromogenic solution (o-phenylenediamine dihydrochloride) and left to incubate for 30 min at room temperature. The chromogenic reaction was stopped by adding 1 N sulfuric acid. The absorbance at 490 nm was then measured using a microtiterplate reader. Ki values were calculated by non-linear regression analysis of competitive binding data using the “One site - Fit Ki” equation of the GraphPad Prism Software using the Kd values of the probe indicated above.
# αvβ5 = biological target: T2, αvβ5 (Homo sapiens, UniProt P06756+P18084); conditions: Table 3a; Ki of 2 as determined in [21]; cited from earlier work
# T2 construct: purchased Immunological Sciences (Rome, Italy)
# αvβ8 [5] = biological target: T1, αvβ8; conditions: Table 3a; Ki of 2 as determined in [21]; cited from earlier work
# αvβ3 = biological target: T3, αvβ3 (Homo sapiens, UniProt P05106+P06756); conditions: Table 3a; Ki of 2 as determined in [21]; cited from earlier work
# T3 construct: purchased Immunological Sciences (Rome, Italy)
# α5β1 = biological target: T4, α5β1 (Homo sapiens, UniProt P05556+P08648); conditions: Table 3a; Ki of 2 as determined in [21]; cited from earlier work
# T4 construct: purchased Immunological Sciences (Rome, Italy)
# T4 sequence (P08648 42-894 limits assumed): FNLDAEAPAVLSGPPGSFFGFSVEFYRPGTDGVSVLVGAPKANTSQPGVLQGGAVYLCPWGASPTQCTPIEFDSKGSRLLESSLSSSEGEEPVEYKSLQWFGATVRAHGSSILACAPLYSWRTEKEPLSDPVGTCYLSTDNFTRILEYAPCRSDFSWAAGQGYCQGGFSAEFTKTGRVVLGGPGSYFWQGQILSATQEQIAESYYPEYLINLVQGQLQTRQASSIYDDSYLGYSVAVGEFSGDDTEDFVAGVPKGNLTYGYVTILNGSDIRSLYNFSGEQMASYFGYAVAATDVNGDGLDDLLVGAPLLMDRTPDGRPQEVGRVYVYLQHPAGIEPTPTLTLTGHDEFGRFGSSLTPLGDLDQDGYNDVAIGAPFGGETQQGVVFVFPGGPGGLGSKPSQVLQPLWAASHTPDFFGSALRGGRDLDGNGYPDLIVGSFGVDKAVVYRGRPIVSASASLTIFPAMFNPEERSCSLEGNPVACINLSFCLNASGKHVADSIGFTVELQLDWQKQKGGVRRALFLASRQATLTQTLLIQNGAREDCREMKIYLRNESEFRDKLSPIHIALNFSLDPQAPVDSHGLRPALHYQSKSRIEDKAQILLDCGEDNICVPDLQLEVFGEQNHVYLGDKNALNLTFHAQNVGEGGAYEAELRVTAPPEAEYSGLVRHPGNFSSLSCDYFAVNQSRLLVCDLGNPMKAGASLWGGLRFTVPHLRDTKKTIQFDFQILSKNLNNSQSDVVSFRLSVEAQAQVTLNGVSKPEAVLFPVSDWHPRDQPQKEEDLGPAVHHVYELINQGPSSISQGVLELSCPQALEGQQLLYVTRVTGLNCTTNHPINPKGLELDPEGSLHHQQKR
# T4 sequence (P08648 895-1049 partner limits assumed): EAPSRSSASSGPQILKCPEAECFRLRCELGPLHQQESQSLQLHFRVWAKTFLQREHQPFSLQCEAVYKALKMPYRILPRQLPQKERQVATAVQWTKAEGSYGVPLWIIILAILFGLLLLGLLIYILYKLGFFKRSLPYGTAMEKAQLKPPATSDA
# T4 sequence (P05556 21-798): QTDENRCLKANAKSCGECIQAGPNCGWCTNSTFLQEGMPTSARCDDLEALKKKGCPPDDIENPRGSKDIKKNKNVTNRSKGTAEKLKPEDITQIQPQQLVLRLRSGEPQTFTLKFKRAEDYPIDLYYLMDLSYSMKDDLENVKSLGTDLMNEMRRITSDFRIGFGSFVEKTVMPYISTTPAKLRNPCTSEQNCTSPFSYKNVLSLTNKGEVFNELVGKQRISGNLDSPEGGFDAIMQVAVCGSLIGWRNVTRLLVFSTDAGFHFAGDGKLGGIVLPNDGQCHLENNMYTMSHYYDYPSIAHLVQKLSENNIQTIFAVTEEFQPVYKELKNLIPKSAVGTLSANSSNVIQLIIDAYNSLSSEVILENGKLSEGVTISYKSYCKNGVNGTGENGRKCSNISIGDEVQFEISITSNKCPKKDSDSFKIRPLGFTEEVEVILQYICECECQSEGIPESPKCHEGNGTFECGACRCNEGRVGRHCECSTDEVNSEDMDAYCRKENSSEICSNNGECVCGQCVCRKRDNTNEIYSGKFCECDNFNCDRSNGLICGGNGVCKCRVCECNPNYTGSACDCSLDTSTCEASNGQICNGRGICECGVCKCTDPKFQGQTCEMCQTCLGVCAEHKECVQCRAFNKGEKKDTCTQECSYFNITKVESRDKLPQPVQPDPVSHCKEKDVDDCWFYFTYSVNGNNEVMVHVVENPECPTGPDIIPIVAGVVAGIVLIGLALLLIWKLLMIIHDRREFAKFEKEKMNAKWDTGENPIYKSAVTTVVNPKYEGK
# αvβ6 [6] = biological target: T5, αvβ6 (Homo sapiens, UniProt P06756+P18564); assay: Competitive integrin binding assay (isoDGR/STV-HRP probe), αvβ6-coated plates; conditions: non-stapled control peptide with RGE
# T5 construct: recombinant human αvβ6 extracellular domain (R&D Systems); purchased R&D Systems (Minneapolis, Minn.)
# T5 sequence (P06756 31-992 limits assumed): as the sequence (P06756 31-992 limits assumed) above
# T5 sequence (P18564 22-709 limits assumed): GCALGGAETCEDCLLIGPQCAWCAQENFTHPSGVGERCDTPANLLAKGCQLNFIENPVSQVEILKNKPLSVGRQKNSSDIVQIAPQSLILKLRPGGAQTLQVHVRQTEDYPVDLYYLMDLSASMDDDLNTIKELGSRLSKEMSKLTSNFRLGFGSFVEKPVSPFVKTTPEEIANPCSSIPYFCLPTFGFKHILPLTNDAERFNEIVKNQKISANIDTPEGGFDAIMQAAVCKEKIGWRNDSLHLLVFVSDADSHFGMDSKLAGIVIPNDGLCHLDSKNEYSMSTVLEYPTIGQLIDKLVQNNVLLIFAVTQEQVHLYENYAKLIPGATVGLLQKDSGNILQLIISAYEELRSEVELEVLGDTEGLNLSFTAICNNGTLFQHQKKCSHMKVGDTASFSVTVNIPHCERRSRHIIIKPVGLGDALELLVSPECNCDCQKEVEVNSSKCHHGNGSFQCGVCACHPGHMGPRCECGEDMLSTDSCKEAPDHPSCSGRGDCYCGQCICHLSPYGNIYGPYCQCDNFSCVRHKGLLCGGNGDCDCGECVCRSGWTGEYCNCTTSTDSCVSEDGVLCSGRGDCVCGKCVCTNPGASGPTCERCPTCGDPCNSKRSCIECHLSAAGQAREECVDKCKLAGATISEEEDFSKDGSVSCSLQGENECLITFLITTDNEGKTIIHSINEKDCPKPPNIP
# Procedure: as §4, §5
# αvβ6 [7] = biological target: T5, αvβ6; conditions: cited from earlier work
# αvβ6 [8] = biological target: T5, αvβ6; assay: Direct binding of peptide-IRDye conjugates to αvβ6-coated microtiter plates; conditions: purified integrin
# Procedure: (§6) Binding of 5a-IRDye and 2a-IRDye to microtiterplates coated with or without αvβ6 or αvβ8 as indicated in each panel. Various amounts of conjugates were added to microtiterplates and incubated for 1 h at room temperature (see Experimental section). After washing, bound fluorescence was measured using an Odyssey CLx (LI-COR) scanner. Representative images of the scanned plate and quantification of the binding are reported. Mean ±SE of triplicates. Effective concentration 50 (EC50, mean±SD) of the indicated number of independent experiments is shown.
# (§7) Binding of 5a-IRDye, 2a-IRDye and Cys-IRDye to αvβ6 and αvβ8 was determined by direct binding assays as follows: 96-well clear-bottom black microtiterplates (Corning® cat. 3601) were coated with 4 μg/ml αvβ6 or αvβ8, in Dulbecco's phosphate-buffered saline with Ca2+ and Mg2+(DPBS, 50 ul/well) and left to incubate over-night at 4° C. […] The bound fluorescence was then quantified by scanning the empty plates with an Odyssey CLx near-infrared fluorescence imaging system (LI-COR) using the following settings: scan intensity, 8.5; scan focus offset, 3; scan quality, highest; channel, 800; resolution, 169 pm.
# αvβ8 [9] = biological target: T1, αvβ8; assay: Direct binding of peptide-IRDye conjugates to αvβ8-coated microtiter plates; conditions: purified integrin
# Procedure: as §6, §7
compound,measurement,setting,value
CC[C@H](C)[C@H](NC(=O)[C@H](CCCNC(=N)N)NC(=O)[C@H](CC(C)C)NC(=O)[C@H](CC(=O)O)NC(=O)CNC(=O)[C@H](CCCNC(=N)N)NC(=O)[C@H](CC(C)C)NC(=O)[C@@H](NC(=O)[C@H](CCC(=O)O)NC(=O)[C@H](Cc1ccccc1)NC(=O)[C@@H](N)CSC1CC(=O)N(CCNC(=O)CCCCCN2C(=CC=C3CCCC(C=CC4=[N+](CCCCS(=O)(=O)[O-])c5ccc(S(=O)(=O)O)cc5C4(C)C)=C3Oc3ccc(S(=O)(=O)O)cc3)C(C)(C)c3cc(S(=O)(=O)O)ccc32)C1=O)[C@@H](C)O)C(=O)N[C@@H](CC(C)C)C(=O)N[C@@H](CO)C(=O)N[C@H](C(=O)N[C@@H](CC(C)C)C(=O)N[C@@H](CCCNC(=N)N)C(=O)N[C@H]1Cc2cn(nn2)CCCC[C@@H](C(=O)N[C@@H](CCCCN)C(=O)N[C@@H](CCC(=O)O)C(=O)N[C@@H](CC(C)C)C(=O)N[C@@H](CCC(N)=O)C(=O)N[C@@H](CC(=O)O)C(N)=O)NC(=O)[C@H](CC(C)C)NC(=O)[C@H](CC(N)=O)NC(=O)[C@H](CCC(N)=O)NC1=O)[C@@H](C)CC (stereo partly shown) [5a-IRDye],tumor signal twenty-four hours after injection,[1],significant signal was still visible
same,time of maximal tumor uptake after injection,[1]; iv,1 h
same,binding of conjugate to cells,BxPC-3 cells,"could bind, in a dose dependent manner"
same,binding of conjugate to cells,5637 cells [2],"could bind, in a dose dependent manner"
same,tissue to tissue ratio at 24 h,in vivo,12
same,binding of conjugate to cells,HUVEC,little or not
*Qdot: control nanoconjugate without the targeting ligand; Qdot coupled to control peptide cyclic head-to-tail c(CGARAG) (cyclo(CGARAG); also: coupled to Qdot (control nanoconjugate)) [reference compound],binding of Qdot conjugate to cells,5637 cells [3],not
FETLRGEERILSILRHQNLLKELQD [peptide 2],binding to αvβ8,αvβ8 [4],unable to bind these integrins
same,Ki,αvβ5,> 50 µM
same,Ki,αvβ8 [5],> 50 µM
same,Ki,αvβ3,> 50 µM
same,Ki,α5β1,> 50 µM
same,binding to αvβ6,αvβ6 [6],unable to bind these integrins
same,Ki,"αvβ6 [7]; Table 3a, Ki of 2 as determined in [21], read-out: Ki αvβ6",> 50 µM
same,Ki,"αvβ6 [7]; peptide with RGE instead of RGD, read-out: Ki",> 50 µM
2a-IRDye: control peptide 2a coupled via Cys to maleimide-IRDye 800CW (C(maleimide‑IRDye 800CW)FETLRGEERILSILRHQNLLKELQD) [reference compound],binding to αvβ6-coated plates,αvβ6 [8],not
same,binding to αvβ8-coated plates,αvβ8 [9],not
same,binding of conjugate to cells,BxPC-3 cells,not
same,binding of conjugate to cells,5637 cells [2],not

# From patent publication US20220402980A1, “CHROMOGRANIN A-DERIVED PEPTIDES AND USES THEREOF” (OSPEDALE SAN RAFFAELE S.R.L., priority 2019, published 2022)
